Results taken from patent US20230041065A1, “METHODS FOR GENERATING HEMATOPOIETIC STEM CELLS” (The Brigham and Women`s Hospital, Inc., priority 2019, published 2023).
Where no end group is shown, it is not given here.

How the values were obtained:
E11.5 AGM cells = test: Hematopoietic CFU and FACS assays on E11.5 AGM cells; format: cell-based, mouse; conditions: for GEMM formation: 50 μM
Procedure: Pulsating blood vessels like conditions were stimulated in vitro using Flexcell FX-4000 machine. To analyze roles of pharmacological targets in regulating the endothelial-to-HSC transition, mouse embryo-derived AGM or whole mouse embryo were exposed ex vivo with biomechanical stretching, chemicals, or drugs. Next, hematopoietic colony formation assays were performed by incubating mouse AGM-derived cells in StemCell M3434 media for seven days. Serial transplantation of AGM-derived HSCs in lethally irradiated SJL mice were performed. The stem cell frequency upon biomechanical stretching was analyzed using a limiting dilution assay. To characterize properties of AGM-HSC-derived blood cells in primary transplants, percentage chimerism and reconstitution was measured using FACS, globin transcripts were analyzed using quantitative reverse transcriptase-PCR, myeloperoxidase amount was measured using PicoKine ELISA kit, TCR-β rearrangement was analyzed using PCR for TCR-β locus, pre-immune IG detection was analyzed using Thermo-Fisher Mouse Ig Isotyping kit, and delayed-type hypersensitivity was analyzed by injecting sheep RBC (Rockland Immunochemicals) in the footpad of pre-sensitized mice. E11.5 AGM were harvested from C57BL6/J Cd45.2 mouse embryos, and a single cell suspension of a three-embryo equivalent of cells was seeded on each well of a BioFlex six-well culture plate ([…]). We cultured cells overnight with the application of cyclic strain (Flexcell® FX4000TM Tension System) and/or treatment with chemical modulators (2-100 μM Yoda1, 1 μM Nanaomycin, 100 μM Gdcl3, 1 uM GsMT×4, 5-20 μM 4αPDD, 10 uM GSK205). Next, harvested cells were used to perform transplant, fluorescence-activated cell sorting (FACS) analysis, and colony-forming unit (CFU) assays. For CFU assays, cells from AGM explant or ex vivo were plated in MethoCult GF M3434 media (StemCell Technologies). Seven days after seeding, we analyzed their capacity to make granulocyte, erythroid, macrophage, megakaryocyte (GEMM), granulocyte macrophage (GM), granulocyte (G), macrophage (M), and erythroid (E) colonies.

zebrafish embryos = test: HSPC marker expression in zebrafish embryos (whole mount in situ hybridization); format: in vivo
Procedure: (§1) Zebrafish embryos were treated with the following chemical modulators in E3 fish media: 100 uM L-NAME (Fisher Scientific), 50 uM Digitoxigenin (Sigma), 25-50 uM Yoda1 (Cayman Chemical), 1 uM Nanaomycin (Nana; Fisher Scientific), 100 uM Gadolinium chloride (GdCl3; Sigma), 5-10 uM 4α-phorbol 12, 13-didecanaote (4Apdd; Sigma), or GSK205 (10 uM).
Whole mount in situ hybridizations was performed as previously described.

[1] = system: cd41:eGFP+ HSCs emerging from flk1:mCherry+ endothelial cells; test: Time-lapse confocal imaging of cd41:eGFP+ HSCs emerging from flk1:mCherry+ endothelial cells in transgenic embryos; format: in vivo, zebrafish; conditions: embryos concurrently treated with or without Yoda1
Procedure: Mice were purchased Cd45.2 (C57BL6/J) and Cd45.1 (SJL) from The Jackson Laboratory and zebrafish morpholinos from GeneTools. Microangiography was performed by injecting fluorescent-labeled dextran dye in the atrium of zebrafish heart and its passage was recorded using live imaging. Immunostaining of zebrafish heart and mouse AGM were analyzed using an inverted fluorescent microscope. Cardiac tamponade, heart rate, and pulse frequency were analyzed in zebrafish embryos using bright field imaging or time-lapse confocal microscopy. The movement of red blood cells in blood vessels was analyzed as well as the endothelial-to-HSC transition in zebrafish transgenic embryos using time-lapse confocal imaging.
as §1
cd41:eGFP were crossed with flk1:mCherry zebrafish and flk1:mCherry with lcr:eGFP zebrafish and injected morpholino in their transgenic embryos. […] The relative movement of lcr:eGFP^+ red blood cells was analyzed in the context of flk1:mCherry^+ endothelium. We performed image analysis using Imaris (Bitplane) software.

With [Cl][Gd]([Cl])[Cl] [GdCl3, Gadolinium chloride] the “formation of multipotent hematopoietic progenitors potentiated by 10% cyclic strain” value (E11.5 AGM cells; 10% cyclic strain plus stretch-activated receptor inhibitor) was “attenuated” and the HSPC expression (zebrafish embryos; zebrafish embryos) was “attenuated HSPC expression in zebrafish embryos to the level of sih-MO embryos”.

For Cc1oc(-c2ccccc2)cc1C(=O)O [Jedi1], the GEMM formation (E11.5 AGM cells) was “enhances GEMM formation”.

Cc1oc(-c2cccs2)cc1C(=O)O [Jedi2] was tested, and the GEMM formation (E11.5 AGM cells) was “enhances GEMM formation”.

With COC(=O)[C@@H](N)CCCNC(=N)N[N+](=O)[O-] [L-NAME] the HSPC formation (zebrafish embryos; cdh5-MO embryos) was “does not impact HSPC formation in cdh5-MO embryos” and the HSPC formation (zebrafish embryos; control embryos) was “attenuates HSPC formation in control embryos”.

For CC1OC(CC(=O)O)CC2=C1C(=O)c1c(O)cccc1C2=O (centres unmarked) [Nanaomycin], the “Piezo1 activation (Yoda1)-mediated increase in HSC formation” value [1] was “attenuated the Piezo1 activation-mediated increase in HSC formation”, the “hematopoietic colony formation stimulated by cyclic strain or Yoda1” value (E11.5 AGM cells; cyclic strain or Yoda1 in the presence of Nanaomycin) was “attenuates the endothelial-to-HSC transition stimulated by circumferential stretch or Piezo1 activation” and the “phenotype of hematopoietic cells after treatment” value (E11.5 AGM cells; stretch- or Piezo1 activation-treated AGM cells) was “reverts hematopoietic cells into phenotypic endothelial cells”. For the same compound, the HSPC marker expression (zebrafish embryos; control and cdh5-MO embryos) was “attenuated HSPC marker expression in control and cdh5-MO embryos”.

“GsMtX4: pharmacological inhibition of Piezo1 (GCLEFWWKCNPNDDKCCRPKLKCSKLFKLCNFSF; ends and bridges not checked; cysteine pairing not given here; UniProt Q7YT39 47-80, looked up)” was tested, and the “hematopoietic colony formation induced by cyclic strain” value (E11.5 AGM cells; cyclic strain plus Piezo1 inhibitor) was “attenuates the inductive impact of cyclic strain on the endothelial-to-HSC transition”.
